Test results published in patent US20250296953A1, “3,4-THIAZOLO-STEROIDS AND METHODS OF MAKING AND USING THE SAME” (Arkansas State University - Jonesboro, priority 2018, published 2025).
Where two headings read alike, the source gives them in different places.

Assays:
Experiment in all cases: Melanoma cytotoxicity assay (resazurin)
Type in all cases: cell-based
LOX IMVI = conditions: for IC50: Homo sapiens
Description: (§1) Cytotoxicity Assay: Melanoma cells (˜4000 cells in each well) were incubated in a 96 well plates at 37° C. in 5% CO2 for 24 hours. Compounds were added in triplicates and the plate was further incubated for 24 hours. DMSO and dacarbazine were added as technical and positive controls respectively. Next day resazurin was added and the plate was further incubated for 6 hours followed by reading the plate at 544 nm (excitation) and 590 nm (emission) using BMG Labtech Fluostar Optima plate reader. IC50 values were determined by using Graphpad Prism.
(§2) On day 1, the cell line trypsinized and centrifuged to form cell pellet. The pellet was diluted in media, then counted using Countess automated cell counter. Approximately 4000 cells (198 uL) per well plated in […]. A control well of 200 uL growth media was also prepared. Wells closest to plate perimeter were filled with 200 uL PBS to prevent inner well evaporation. The 96 well plates are incubated in 37° C. incubator at 5% CO2 for 24 hours.
(§3) On day 2, compounds were added (in triplicate) along with DMSO/Dacarbazine controls (2 uL) added to bring wells to volume of 200 μL. The 96 well plates are incubated in 37° C. incubator at 5% CO2 for 24 hours.
(§4) On day 3, 40 μL of 0.15 mg/ml reszurin solution added to wells. Samples were placed in a 37° C. incubator at 5% CO2 for 6 hours. Excitation and emission for fluorescence measured at 544 nm and 590 nm using BMG Labtech Fluostar Optima plate reader
(§5) Percent viability determined by taking average of each triplicate well fluorescence and subtracting GM well reading to remove the background signal. This difference is then divided by the average of the negative control (DMSO) wells to determine percent viability.
(§6) IC50s were determined by using cereal dilution of compound to determine viability. Viabilities and concentration of cells are analyzed in Graphpad Prism by creating sigmoidal curve graph, which will determine the IC50 concentration.
(§7) We analyzed the ability of the thiazole-androstane derivatives to inhibit growth in various melanoma cell lines. The growth inhibition against melanoma cell lines of various compound is shown below in Tables 19 and 20. Inhibition results are reported as the IC50 concentration in μM of the indicated compound or as the percent viability […] of the indicated compound. NA=not available.

SK-MEL-25 = conditions: for IC50: Homo sapiens; for SK-MEL-25 (% inhibition): concentration not given
Description: as §1, §2, §3, §4, §5, §6, §7

SK-MEL-28 = conditions: for IC50: Homo sapiens, 24 hours; for IC50 / SK-MEL-28 (% inhibition): resazurin; for SK-MEL-28 (% inhibition): concentration not given
Description: as §1, §2, §3, §4, §5, §6, §7

SK-MEL-5 = conditions: for SK-MEL-5 (% inhibition): resazurin, concentration not given
Description: as §1, §2, §3, §4, §5, §6, §7

MALME-3M = test system: MALME-3M
Description: as §2, §3, §4, §5, §6, §7

[1] = LOX IMVI melanoma cells, 24 hours, resazurin
[2] = SK-MEL-25 melanoma cells, 24 hours, resazurin, read-out: SK-MEL-25 (IC50)
[3] = SK-MEL-25 melanoma cells, 24 hours with compound, resazurin
[4] = SK-MEL-28 melanoma cells, 24 hours with compound
[5] = SK-MEL-5 melanoma cells, 24 hours with compound
[6] = SK-MEL-25 melanoma cells (head prints SK-25), read-out: SK-25 IC50

SMILES	IC50 (LOX IMVI; LOX IMVI melanoma cells) [µM]	LOX-IMVI (% viability) (LOX IMVI; human, 24 h) [%]	SK-MEL-25 (% viability) (SK-MEL-25; human, 24 h) [%]	SK-MEL-28 (% viability) (SK-MEL-28; human, 24 h) [%]	SK-MEL-5 (% viability) (SK-MEL-5; human, 24 h) [%]	MALME-3M (% viability) (MALME-3M; human, 24 h) [%]	further results
C[C@]12CCc3sc(Nc4ccccc4Cl)nc3C1=CC[C@@H]1[C@@H]2CC[C@]2(C)C(=O)CC[C@@H]12 [IIa.11, (1S,2R,13R,14S,18S)-7-(2-chloroanilino)-2,18-dimethyl-6-thia-8-azapentacyclo[11.7.0.02,10.05,9.014,18]icosa-5(9),7,10-trien-17-one]	–	–	–	–	–	–	IC50 (LOX IMVI; [1]): 12 µM; IC50 (SK-MEL-25; [2]): 9 µM; SK-MEL-25 (% inhibition) (SK-MEL-25; [3]): 96%; IC50 (SK-MEL-28; SK-MEL-28 melanoma cells): > 20 µM; SK-MEL-28 (% inhibition) (SK-MEL-28; [4]): 88%; SK-MEL-5 (% inhibition) (SK-MEL-5; [5]): 84%
Cc1ccc(Nc2nc3c(s2)CC[C@@]2(C)C3=CC[C@@H]3[C@@H]2CC[C@]2(C)C(=O)CC[C@@H]32)cc1 [IIa.32, (1S,2R,13R,14S,18S)-2,18-dimethyl-7-(4-methylanilino)-6-thia-8-azapentacyclo[11.7.0.02,10.05,9.014,18]icosa-5(9),7,10-trien-17-one]	–	–	–	–	–	–	IC50 (LOX IMVI; [1]): 9 µM; IC50 (SK-MEL-25; [2]): 5 µM; SK-MEL-25 (% inhibition) (SK-MEL-25; [3]): 87%; IC50 (SK-MEL-28; SK-MEL-28 melanoma cells): > 20 µM; SK-MEL-28 (% inhibition) (SK-MEL-28; [4]): 63%
C[C@]12CC[C@H]3[C@@H](CC=C4c5sc(NCCc6ccccc6)nc5CC[C@@]43C)[C@@H]1CC[C@@H]2O [IIIa.5, (1S,2R,13R,14S,17S,18S)-2,18-dimethyl-7-(2-phenylethylamino)-8-thia-6-azapentacyclo[11.7.0.02,10.05,9.014,18]icosa-5(9),6,10-trien-17-ol]	11	10	9.39	4.28	3.49	55.63	–
C[C@]12CC[C@H]3[C@@H](CC=C4c5sc(Nc6cccc(C(=O)O)c6)nc5CC[C@@]43C)[C@@H]1CC[C@@H]2O [IIIa.35, 3-[[(1S,2R,13R,14S,17S,18S)-17-hydroxy-2,18-dimethyl-8-thia-6-azapentacyclo[11.7.0.02,10.05,9.014,18]icosa-5(9),6,10-trien-7-yl]amino]benzoic acid]	–	89	54.19	66.69	106.21	122.92	–
CCNc1nc2c(s1)C1=CC[C@H]3[C@@H]4CC[C@H](O)[C@@]4(C)CC[C@@H]3[C@@]1(C)CC2 [IIIa.3, (1S,2R,13R,14S,17S,18S)-7-(ethylamino)-2,18-dimethyl-8-thia-6-azapentacyclo[11.7.0.02,10.05,9.014,18]icosa-5(9),6,10-trien-17-ol]	> 20	6	5.06	2.00	2.46	51.83	–
CNc1nc2c(s1)C1=CC[C@H]3[C@@H]4CC[C@H](O)[C@@]4(C)CC[C@@H]3[C@@]1(C)CC2 [IIIa.2, (1S,2R,13R,14S,17S,18S)-2,18-dimethyl-7-(methylamino)-8-thia-6-azapentacyclo[11.7.0.02,10.05,9.014,18]icosa-5(9),6,10-trien-17-ol]	–	14	6.21	1.9	2.02	59.51	–
CCCCNc1nc2c(s1)C1=CC[C@H]3[C@@H]4CC[C@H](O)[C@@]4(C)CC[C@@H]3[C@@]1(C)CC2 [IIIa.4, (1S,2R,13R,14S,17S,18S)-7-(butylamino)-2,18-dimethyl-8-thia-6-azapentacyclo[11.7.0.02,10.05,9.014,18]icosa-5(9),6,10-trien-17-ol]	7.67	2	2.63	1.69	2.1	4.96	IC50 (SK-MEL-25; [6]): 16 µM
CC(=O)Nc1nc2c(s1)C1=CC[C@H]3[C@@H]4CC[C@H](O)[C@@]4(C)CC[C@@H]3[C@@]1(C)CC2 [IIIa.37, N-[(1S,2R,13R,14S,17S,18S)-17-hydroxy-2,18-dimethyl-8-thia-6-azapentacyclo[11.7.0.02,10.05,9.014,18]icosa-5(9),6,10-trien-7-yl]acetamide]	–	–	39.57	62.56	48.52	104.91	IC50 (SK-MEL-25; [6]): > 20 µM
C[C@]12CC[C@H]3[C@@H](CC=C4c5sc(Nc6ccccc6[N+](=O)[O-])nc5CC[C@@]43C)[C@@H]1CC[C@@H]2O [IIIa.16, (1S,2R,13R,14S,17S,18S)-2,18-dimethyl-7-(2-nitroanilino)-8-thia-6-azapentacyclo[11.7.0.02,10.05,9.014,18]icosa-5(9),6,10-trien-17-ol]	–	67	26.7	8.47	10.22	102.39	–
C[C@]12CC[C@H]3[C@@H](CC=C4c5sc(Nc6ccc(C(=O)O)cc6)nc5CC[C@@]43C)[C@@H]1CC[C@@H]2O [IIIa.26, 4-[[(1S,2R,13R,14S,17S,18S)-17-hydroxy-2,18-dimethyl-8-thia-6-azapentacyclo[11.7.0.02,10.05,9.014,18]icosa-5(9),6,10-trien-7-yl]amino]benzoic acid]	–	79	37.03	69.56	93.06	113.38	–
C[C@]12CCc3nc(Cc4ccccc4)sc3C1=CC[C@@H]1[C@@H]2CC[C@]2(C)C(=O)CC[C@@H]12 [II.2]	–	–	–	–	–	–	LOX-IMVI (% inhibition) (LOX IMVI; LOX IMVI melanoma cells, 24 hours with compound, resazurin, concentration not given): 17%; SK-MEL-25 (% inhibition) (SK-MEL-25; [3]): 69%; SK-MEL-28 (% inhibition) (SK-MEL-28; [4]): 98%; SK-MEL-5 (% inhibition) (SK-MEL-5; [5]): 77%
C=CCNc1nc2c(s1)C1=CC[C@H]3[C@@H]4CC[C@H](O)[C@@]4(C)CC[C@@H]3[C@@]1(C)CC2 [IIIa.6, (1S,2R,13R,14S,17S,18S)-7-(allylamino)-2,18-dimethyl-8-thia-6-azapentacyclo[11.7.0.02,10.05,9.014,18]icosa-5(9),6,10-trien-17-ol]	> 20	11	3.79	2.04	3.52	29.73	–
C[C@]12CC[C@H]3[C@@H](CC=C4c5sc(Nc6cccc(O)c6)nc5CC[C@@]43C)[C@@H]1CC[C@@H]2O [IIIa.39]	–	–	–	–	–	–	LOX-IMVI (% viability) (LOX IMVI; LOX IMVI melanoma cells, percent viability vs DMSO control, 24 hours with compound): 51%; SK-MEL-25 (% viability) (SK-MEL-25; SK-MEL-25 melanoma cells, percent viability vs DMSO control, 24 hours with compound): 6.33%; SK-MEL-28 (% viability) (SK-MEL-28; SK-MEL-28 melanoma cells, percent viability vs DMSO control, 24 hours with compound): 3.71%; SK-MEL-5 (% viability) (SK-MEL-5; SK-MEL-5 melanoma cells, percent viability vs DMSO control, 24 hours with compound): 6.75%; MALME-3M (% viability) (MALME-3M; MALME-3M melanoma cells, percent viability vs DMSO control, 24 hours with compound): 45.95%
